From patent US20050069498A1, “Method for identifying metabotropic glutamate receptor agonists and potentiators” (priority 2003, published 2005) come the findings set out here.

The test system of this experiment is VHipp norepinephrine (NE) release. The experiment is described as follows: Ketamine challenge: norepinephrine release in ventral hippocampus by in vivo microdialysis. As to conditions: three ketamine doses vs vehicle control, 20 min intervals over 120 min, time course and AUC (FIG. 2, 3).

The structures appear in SMILES notation.

Take `CNC1(c2ccccc2Cl)CCCCC1=O` (centres unmarked) [Ketamine]: the “VHipp norepinephrine (NE) release after ketamine challenge” value is reported as “dose dependent increase”. For the same compound, the “VHipp norepinephrine (NE) release after ketamine challenge” value (listed as ketamine) is reported as “greater area under the curve”.
